The values below come from patent publication US10435388B2, “Selective inhibitors of clinically important mutants of the EGFR tyrosine kinase” (CS PHARMATECH LIMITED, priority 2016, dated 2019).

The test system of assay [1] is PC9 cells (EGFR d746-750 single mutant). The assay is described as follows: PC-9 growth inhibition assay (cell proliferation), Method A. It counts as cell-based, human. The conditions noted are these: Homo sapiens, PC-9; cellular proliferation, PC9 cells, 72 h, CellTiter-Glo (Table 1); read-out: PC9 IC50 (nM) SM. Here is the method:
(§1) Cell Proliferation Assays—Method A
(§2) The final concentration was 4,000 cells/well. Add medium only as low control.
(§3) Day-2: Test compounds were dissolved in DMSO at 0.2 mM (200×).
(§4) Day-5: After 72 hours incubation, remove the plates from incubator and equilibrate at room temperature for 15 minutes. Incubate the CellTiter Glo reagents (Promega, G9243) at 37° C. before the experiment. The buffer was equilibrated to room temperature and used to dissolve the substrate. To determine the cell viability, add 30 μL of CellTiter-Glo reagent into each well to be detected. Then shake the plates at room temperature for 10 min and followed by plate read on Envision (PerkinElmer).
(§5) For estimation of IC50, the luminescence readout are transformed to % Inhibition by applying the following equation: The IC50 was then
(§6) [formula] calculated by fitting in XLFit to a four parameters logistic curve.
PC-9 Growth Inhibition Assay (Cell Proliferation)
The inhibition assay for PC-9 cells was processed in the same manner as described for the H1975 cells.
Background: Cellular ATP, detected with luciferase, serves as a proxy for viable cell number.

The target in assay [2] is T1, Wt EGFR (Homo sapiens, UniProt P00533).
T1 construct: isolated from A431 human epidermoid carcinoma cells which overexpress EGF receptor; endogenous in cells; host or cells: A431 human epidermoid carcinoma cells (receptor purified on wheat germ agglutinin sepharose)
Nature of the assay: Enzyme assay, IC50 for wt EGFR (Caliper). The class given is biochemical. The conditions noted are these: enzyme phosphorylation assay; read-out: EGFR_WT IC50. Here is the method: Purification of Epidermal Growth Factor Receptor Tyrosine Kinase Human EGF receptor tyrosine kinase was isolated from A431 human epidermoid carcinoma cells which overexpress EGF receptor by the following methods. Cells were grown in roller bottles in 50% Delbuco's Modified Eagle and 50% HAM F-12 nutrient media (Gibco) containing 10% fetal calf serum. Approximately 10^9 cells were lysed in two volumes of buffer containing 20 mM 2-(4N-[2-hydroxyethyl]piperazin-1-yl)ethanesulfonic acid (hepes), pH 7.4, 5 mM ethylene glycol bis(2-aminoethyl ether) N,N,N′,N′-tetraacetic acid, 1% Triton X-1OO, 10% glycerol. 0.1 mM sodium orthovanadate, 5 mM sodium fluoride, 4 mM pyrophosphate, 4 mM benzamide, 1 mM dithiothreitol, 80 μg/mL aprotinin, 40 μg/mL leupeptin and 1 mM phenylmethylsulfonyl fluoride. After centrifugation at 25,000×g for 10 minutes, the supernatant was equilibrated for 2 h at […], with 10 mL of wheat germ agglutinin sepharose that was previously equilibrated with 50 mM Hepes, 10% glycerol, 0.1% Triton X-100 and 150 mM NaCl, pH 7.5, (equilibration buffer). Contaminating proteins were washed from the resin with 1M NaCl in equilibration buffer, and the enzyme was eluted with 0.5M N-acetyl-1-D-glucosamine in equilibration buffer, followed by 1 mM urea. The enzyme was eluted with 0.1 mg/ml EGF.
Determination of IC50 Values for Wt EGFR
Dilute all compounds to 500 μM stock solutions in 100% DMSO and make a serial of 4-fold dilution for 10 does. “Max” and “Min” control contain 100% DMSO. “Max” stands for […], “Min” stands for low control without compounds. Transfer 10 μl of compounds to 90 μl of Ix kinase base buffer to make intermediate dilution. Transfer 5 μl of intermediate dilution compounds to the 384-well assay plate, then 10 μl 2.5× enzyme buffer containing (20 nM EGFR, 5 mM DTT, 1× kinase base buffer) were added to assay plate. […] Incubate at RT for 1 hr and 25 μl stop buffer to end up reaction. Collect conversion data from Caliper and conversion data from Caliper program. Fit the data in XLfit to obtain IC50 values.

Assay [3] deals with LoVo cells (unmutated EGFR wild type). The assay is described as follows: LoVo growth inhibition assay (cell proliferation), Method A. It counts as cell-based. The conditions noted are these: Homo sapiens, cellular proliferation, 72 h, CellTiter-Glo (Table 1), read-out: LoVo IC50 (nM) WT. As for the experimental part: as §1
LoVo Growth Inhibition Assay (Cell Proliferation)
The rest of the procedure was carried out in the same manner as described for the H1975 cells.

The target of assay [4] is EGFR_d746-750 (Homo sapiens, UniProt P00533, DEL746-750). The assay is described as follows: Enzyme assay, IC50 for single mutant EGFR_d746-750 (Caliper). The class given is biochemical. The following applies: enzyme phosphorylation assay. Here is the method: (§7) Using the same technique as described in the previous paragraph, various mutated forms of the epidermal growth factor receptor may be isolated from appropriate cell lines which contain them. For example, the EGFR de1746-750 mutant protein may be extracted from PC-9 cells, and the L858R/T790M double mutant EGFR protein may be isolated from H1975 cells.
Determination of IC50 Values for Single Mutant EGFR_d746-750
Dilute all compounds to 500 μM stock solutions in 100% DMSO and make a serial of 4-fold dilution for 10 doses. “Max” and “Min” control contain 100% DMSO. “Max” stands for […], “Min” stands for low control without compounds. Transfer 10 μl of compounds to 90 μl of 1× kinase base buffer to make intermediate dilution. […] Incubate at RT for 1 hr and 25 μl stop buffer to end up reaction. Collect conversion data from Caliper and conversion data from Caliper program. Fit the data in XLfit to obtain IC50 values.

Assay [5] concerns the target EGFR_T790M/L858R (Homo sapiens, UniProt P00533, L858R/T790M). The assay is described as follows: Enzyme assay, IC50 for double-mutant EGFR (EGFR_T790M/L858R) (Caliper). The conditions noted are these: enzyme phosphorylation assay; read-out: EGFR_L858R/T790 IC50. It counts as biochemical. Here is the method:
as §7
Determination of IC50 Values for Double-Mutant EGFR (EGFR_T790M/L858R)
Dilute all compounds to 500 μM stock solutions in 100% DMSO and make a serial of 4-fold dilution for 10 does. “Max” and “Min” control contain 100% DMSO. “Max” stands for […], “Min” stands for low control without compounds. Transfer 10 μl of compounds to 90 μl of 1× kinase base buffer to make intermediate dilution. […] Incubate at RT for 1 hr and 25 μl stop buffer to end up reaction. Collect conversion data from Caliper and conversion data from Caliper program. Fit the data in XLfit to obtain IC50 values.

The test system of assay [6] is NCI-H1975 cells (EGFR L858R/T790 double mutant). Nature of the assay: H1975 inhibition assay (cell proliferation), Method A. The class given is cell-based. The conditions noted are these: Homo sapiens; cellular proliferation, NCI-H1975 cells, 72 h, CellTiter-Glo (Table 1); read-out: NCI-H1975 IC50 (nM) DM. As for the experimental part:
as §1
H1975 Inhibition Assay (Cell Proliferation)
as §2, §3, §4, §5, §6

Sequence of EGFR_d746-750 (P00533 with tags, fused parts or gaps DEL746-750): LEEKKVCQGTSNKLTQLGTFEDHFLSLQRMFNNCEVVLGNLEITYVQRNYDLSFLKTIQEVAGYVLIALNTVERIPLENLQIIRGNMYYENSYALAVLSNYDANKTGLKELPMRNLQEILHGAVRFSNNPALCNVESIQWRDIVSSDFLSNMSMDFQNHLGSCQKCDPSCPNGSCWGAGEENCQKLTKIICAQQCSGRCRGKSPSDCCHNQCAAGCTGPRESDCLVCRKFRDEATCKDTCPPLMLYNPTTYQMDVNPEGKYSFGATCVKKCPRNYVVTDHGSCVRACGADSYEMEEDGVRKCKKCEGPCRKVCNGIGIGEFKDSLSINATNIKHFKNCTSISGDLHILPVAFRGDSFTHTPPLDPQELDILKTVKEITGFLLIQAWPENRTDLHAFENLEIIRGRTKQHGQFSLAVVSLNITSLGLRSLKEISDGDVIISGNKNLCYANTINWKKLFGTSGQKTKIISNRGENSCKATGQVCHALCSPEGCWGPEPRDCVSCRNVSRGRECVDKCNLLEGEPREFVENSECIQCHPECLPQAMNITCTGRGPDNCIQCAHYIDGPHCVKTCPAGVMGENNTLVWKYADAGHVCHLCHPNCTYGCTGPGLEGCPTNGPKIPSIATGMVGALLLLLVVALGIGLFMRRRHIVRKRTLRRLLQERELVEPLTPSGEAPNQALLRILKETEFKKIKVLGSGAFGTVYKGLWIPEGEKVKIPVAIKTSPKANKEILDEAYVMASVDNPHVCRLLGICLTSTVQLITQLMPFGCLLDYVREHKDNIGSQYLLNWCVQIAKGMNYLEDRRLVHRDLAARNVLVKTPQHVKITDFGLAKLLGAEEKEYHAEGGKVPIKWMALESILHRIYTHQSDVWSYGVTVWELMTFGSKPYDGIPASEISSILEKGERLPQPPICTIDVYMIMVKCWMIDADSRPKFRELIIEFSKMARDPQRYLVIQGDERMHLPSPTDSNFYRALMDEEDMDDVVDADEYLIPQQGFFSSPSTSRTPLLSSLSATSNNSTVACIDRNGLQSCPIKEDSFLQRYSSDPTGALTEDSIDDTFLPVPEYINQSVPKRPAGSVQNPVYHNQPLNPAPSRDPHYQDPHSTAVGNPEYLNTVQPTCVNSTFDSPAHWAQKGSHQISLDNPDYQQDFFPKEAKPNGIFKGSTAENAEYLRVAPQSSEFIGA
T1 sequence (P00533 25-1210): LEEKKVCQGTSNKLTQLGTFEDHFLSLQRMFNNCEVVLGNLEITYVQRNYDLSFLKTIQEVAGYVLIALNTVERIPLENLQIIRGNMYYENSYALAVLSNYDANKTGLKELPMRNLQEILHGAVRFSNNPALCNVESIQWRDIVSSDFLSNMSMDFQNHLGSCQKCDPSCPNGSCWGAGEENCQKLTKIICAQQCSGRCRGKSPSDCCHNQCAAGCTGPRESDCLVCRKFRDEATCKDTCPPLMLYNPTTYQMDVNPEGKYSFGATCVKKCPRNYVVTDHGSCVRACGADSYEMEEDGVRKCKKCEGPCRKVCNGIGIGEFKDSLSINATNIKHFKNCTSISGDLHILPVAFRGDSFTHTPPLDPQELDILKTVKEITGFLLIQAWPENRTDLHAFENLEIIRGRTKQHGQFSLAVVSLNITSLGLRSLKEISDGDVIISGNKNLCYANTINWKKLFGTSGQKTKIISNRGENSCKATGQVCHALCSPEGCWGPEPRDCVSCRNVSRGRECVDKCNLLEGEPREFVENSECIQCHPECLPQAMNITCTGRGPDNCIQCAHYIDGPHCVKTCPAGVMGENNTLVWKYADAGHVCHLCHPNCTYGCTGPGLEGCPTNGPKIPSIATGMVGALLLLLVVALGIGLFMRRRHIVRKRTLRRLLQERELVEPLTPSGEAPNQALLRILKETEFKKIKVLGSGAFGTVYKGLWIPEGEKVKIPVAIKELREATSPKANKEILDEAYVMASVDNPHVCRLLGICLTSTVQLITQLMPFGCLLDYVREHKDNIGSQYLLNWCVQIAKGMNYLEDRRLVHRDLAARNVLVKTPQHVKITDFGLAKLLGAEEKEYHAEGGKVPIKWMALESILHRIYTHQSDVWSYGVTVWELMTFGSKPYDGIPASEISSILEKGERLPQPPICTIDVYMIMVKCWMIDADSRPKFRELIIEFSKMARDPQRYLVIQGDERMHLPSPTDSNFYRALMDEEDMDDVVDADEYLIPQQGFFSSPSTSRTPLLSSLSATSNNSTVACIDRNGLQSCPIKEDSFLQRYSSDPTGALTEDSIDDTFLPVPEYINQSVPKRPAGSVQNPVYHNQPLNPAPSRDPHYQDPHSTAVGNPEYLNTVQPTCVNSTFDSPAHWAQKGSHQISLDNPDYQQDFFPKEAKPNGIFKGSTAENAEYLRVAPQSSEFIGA
Sequence of EGFR_T790M/L858R (P00533 25-1210 T790M/L858R): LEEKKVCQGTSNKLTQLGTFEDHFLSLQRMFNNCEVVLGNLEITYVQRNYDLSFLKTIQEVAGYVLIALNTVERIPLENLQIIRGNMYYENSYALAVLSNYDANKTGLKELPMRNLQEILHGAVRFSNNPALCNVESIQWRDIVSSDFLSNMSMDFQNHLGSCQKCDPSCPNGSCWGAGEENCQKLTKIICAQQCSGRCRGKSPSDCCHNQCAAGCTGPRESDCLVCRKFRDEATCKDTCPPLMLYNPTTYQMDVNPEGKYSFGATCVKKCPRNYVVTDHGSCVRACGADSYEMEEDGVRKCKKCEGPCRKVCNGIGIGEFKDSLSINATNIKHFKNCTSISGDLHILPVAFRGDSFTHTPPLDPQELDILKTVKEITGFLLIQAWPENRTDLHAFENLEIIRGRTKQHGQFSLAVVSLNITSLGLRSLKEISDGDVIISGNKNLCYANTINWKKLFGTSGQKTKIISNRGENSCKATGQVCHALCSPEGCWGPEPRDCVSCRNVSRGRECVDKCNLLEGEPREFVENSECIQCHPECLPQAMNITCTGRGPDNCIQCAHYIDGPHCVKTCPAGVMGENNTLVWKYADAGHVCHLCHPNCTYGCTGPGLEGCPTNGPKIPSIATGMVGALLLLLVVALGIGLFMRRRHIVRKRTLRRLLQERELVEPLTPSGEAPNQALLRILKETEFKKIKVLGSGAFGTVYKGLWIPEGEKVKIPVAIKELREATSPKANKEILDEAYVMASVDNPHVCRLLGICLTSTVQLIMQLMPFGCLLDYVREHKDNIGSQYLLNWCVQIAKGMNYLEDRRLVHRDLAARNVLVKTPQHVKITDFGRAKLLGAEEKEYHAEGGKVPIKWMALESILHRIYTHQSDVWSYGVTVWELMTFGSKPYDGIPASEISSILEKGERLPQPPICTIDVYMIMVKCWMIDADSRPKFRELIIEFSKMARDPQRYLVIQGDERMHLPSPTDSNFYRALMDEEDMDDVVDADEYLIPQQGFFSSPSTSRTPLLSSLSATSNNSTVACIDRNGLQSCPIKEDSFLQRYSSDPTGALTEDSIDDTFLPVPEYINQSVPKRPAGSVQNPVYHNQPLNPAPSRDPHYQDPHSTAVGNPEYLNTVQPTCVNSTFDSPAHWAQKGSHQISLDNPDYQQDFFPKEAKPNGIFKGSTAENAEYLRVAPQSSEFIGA

Consider `C=CC(=O)Nc1cc(Nc2nccc(-n3cc(CO)c4ccccc43)n2)c(OC)cc1N(C)CCN(C)C` [Example 8, N-(2-(N-(2-(N,N-Dimethylamino)ethyl)-N-methylamino)-4-methoxy-5-(4-(3-(hydroxymethyl)indol-1-yl)pyrimidin-2-ylamino)phenyl) propenamide], for which the IC50 came out at 3.5 nM in assay [1]; 2.1 nM in assay [2]; 6650 nM in assay [3]; 1.2 nM in assay [4]; 1.8 nM in assay [5]; 2.9 nM in assay [6].
`C=CC(=O)Nc1cc(Nc2nccc(-n3cc(S(C)(=O)=O)c4ccccc43)n2)c(OC)cc1N(C)CCN(C)C` [Example 9, N-(2-(N-(2-(N,N-Dimethylamino)ethyl)-N-methylamino)-4-methoxy-5-(4-(3-(methylsulfonyl)indol-1-yl)pyrimidin-2-ylamino)phenyl) propenamide]: the IC50 in assay [1] was 3.4 nM; in assay [2], 1.5 nM; in assay [3], 5860 nM; in assay [4], 1.1 nM; in assay [5], 1.3 nM; in assay [6], 2.4 nM.
Turning to `C=CC(=O)Nc1cc(Nc2nccc(-n3c(=O)[nH]c4ccccc43)n2)c(OC)cc1N(C)CCN(C)C` [Example 10, N-(2-(N-(2-(N,N-Dimethylamino)ethyl)-N-methylamino)-4-methoxy-5-(4-(2-oxo-2,3-dihydrobenzimidazol-1-yl)pyrimidin-2-ylamino)phenyl) propenamide], the IC50 in assay [1] worked out at 2.2 nM; in assay [2] it was 1.3 nM; in assay [3], 12000 nM; in assay [4] it was 0.91 nM; in assay [5], 1.2 nM; in assay [6], 1.5 nM.
Take `C=CC(=O)Nc1cc(Nc2nccc(-c3c[nH]c4c(C)cccc34)n2)c(OC)cc1N(C)CCN(C)C` [Example 11, N-(2-(N-(2-(N,N-Dimethylamino)ethyl)-N-methylamino)-4-methoxy-5-(4-(7-methylindol-3-yl)pyrimidin-2-ylamino)phenyl) propenamide]: the IC50 in assay [1] was 2.9 nM; in assay [2], 1.5 nM; in assay [3], 4730 nM; in assay [4], 1 nM; in assay [5], 1.3 nM; in assay [6], 2.3 nM.
`C=CC(=O)Nc1cc(Nc2nccc(-c3c[nH]c4c(C#N)cccc34)n2)c(OC)cc1N(C)CCN(C)C` [Example 12, N-(2-(N-(2-(N,N-Dimethylamino)ethyl)-N-methylamino)-4-methoxy-5-(4-(7-cyanoindol-3-yl)pyrimidin-2-ylamino)phenyl) propenamide]: the IC50 was 5.2 nM in assay [1]; 1.5 nM in assay [2]; 2560 nM in assay [3]; 1.1 nM in assay [4]; 1.2 nM in assay [5]; 3.5 nM in assay [6].
In the case of `C=CC(=O)Nc1cc(Nc2nccc(N3CCc4ccccc43)n2)c(OC)cc1N(C)CCN(C)C` [Example 13, N-(2-(N-(2-(N,N-Dimethylamino)ethyl)-N-methylamino)-4-methoxy-5-(4-(2,3-dihydroindol-1-yl)pyrimidin-2-ylamino)phenyl) propenamide], the IC50 was 9.9 nM in assay [1]; 6.7 nM in assay [2]; 5810 nM in assay [3]; 1.7 nM in assay [4]; 1.5 nM in assay [5]; 5.6 nM in assay [6].
As to `C=CC(=O)Nc1cc(Nc2nccc(-c3c(C)[nH]c4ccccc34)n2)c(OC)cc1N(C)CCN(C)C` [Example 14, N-(2-(N-(2-(N,N-Dimethylamino)ethyl)-N-methylamino)-4-methoxy-5-(4-(2-methylindol-3-yl)pyrimidin-2-ylamino)phenyl) propenamide], the IC50 in assay [1] was determined as 6.1 nM; in assay [2], 5 nM; in assay [3] it was 2980 nM; in assay [4], 1 nM; in assay [5], 1.8 nM; in assay [6] it was 3.7 nM.
Regarding `C=CC(=O)Nc1cc(Nc2nccc(-c3n[nH]c4ccccc34)n2)c(OC)cc1N(C)CCN(C)C` [Example 15, N-(2-(N-(2-(N,N-Dimethylamino)ethyl)-N-methylamino)-4-methoxy-5-(4-(indazol-3-yl)pyrimidin-2-ylamino)phenyl) propenamide], the IC50 in assay [1] stood at 3.3 nM; in assay [2], 1.9 nM; in assay [3] it was 13500 nM; in assay [4], 1.1 nM; in assay [5] it was 1.5 nM; in assay [6], 2.9 nM.
